The text below walks through data of publication PMC9706563, “Development of Macrocyclic PRMT5–Adaptor Protein Interaction Inhibitors” (Journal of Medicinal Chemistry, 2022).

Each structure is given as a SMILES string. Read-outs that look alike come from different tables or passages of the source. Square brackets hold non-standard residues; d marks the D form. Peptide text beside a SMILES is read from it. * marks the point of attachment. FITC = O=C1OC2(c3ccc(O)cc3Oc3cc(O)ccc32)c2ccc(NC(=S)*)cc21; Phe(4-guanidino) = N=C(N)Nc1ccc(C[C@H](N)C(=O)O)cc1; Phe(F5) = N[C@@H](Cc1c(F)c(F)c(F)c(F)c1F)C(=O)O; Bpa = N[C@@H](Cc1ccc(C(=O)c2ccccc2)cc1)C(=O)O; Phe(2-Ph) = N[C@@H](Cc1ccccc1-c1ccccc1)C(=O)O; Gla = N[C@@H](CC(C(=O)O)C(=O)O)C(=O)O; Phe(2-I) = N[C@@H](Cc1ccccc1I)C(=O)O; Nle = CCCC[C@H](N)C(=O)O Some results are limits rather than exact numbers.

The test deals with T1, PRMT5-MEP50 (Homo sapiens, UniProt O14744).
T1 construct: The compounds were tested by means of FP with the full-length PRMT5-MEP50 complex; made in house
T1 sequence (O14744 whole entry): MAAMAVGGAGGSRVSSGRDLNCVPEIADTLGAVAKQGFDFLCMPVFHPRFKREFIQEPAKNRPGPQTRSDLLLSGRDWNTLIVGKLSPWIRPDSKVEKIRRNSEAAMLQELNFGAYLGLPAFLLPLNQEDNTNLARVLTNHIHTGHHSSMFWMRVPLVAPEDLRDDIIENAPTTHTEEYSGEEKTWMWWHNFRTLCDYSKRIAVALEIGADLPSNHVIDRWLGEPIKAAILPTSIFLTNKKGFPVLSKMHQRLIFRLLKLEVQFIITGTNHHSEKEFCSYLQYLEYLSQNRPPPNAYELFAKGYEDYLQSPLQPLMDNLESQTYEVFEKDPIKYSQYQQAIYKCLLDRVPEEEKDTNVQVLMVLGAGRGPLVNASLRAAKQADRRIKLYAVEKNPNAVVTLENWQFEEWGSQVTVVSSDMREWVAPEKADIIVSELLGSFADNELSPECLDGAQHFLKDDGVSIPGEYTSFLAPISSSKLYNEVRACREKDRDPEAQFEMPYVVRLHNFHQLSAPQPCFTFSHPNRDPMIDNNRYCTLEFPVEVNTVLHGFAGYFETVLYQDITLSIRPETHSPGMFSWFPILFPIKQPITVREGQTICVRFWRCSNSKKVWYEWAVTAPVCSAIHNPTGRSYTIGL
T1 sequence (Q9BQA1 whole entry partner): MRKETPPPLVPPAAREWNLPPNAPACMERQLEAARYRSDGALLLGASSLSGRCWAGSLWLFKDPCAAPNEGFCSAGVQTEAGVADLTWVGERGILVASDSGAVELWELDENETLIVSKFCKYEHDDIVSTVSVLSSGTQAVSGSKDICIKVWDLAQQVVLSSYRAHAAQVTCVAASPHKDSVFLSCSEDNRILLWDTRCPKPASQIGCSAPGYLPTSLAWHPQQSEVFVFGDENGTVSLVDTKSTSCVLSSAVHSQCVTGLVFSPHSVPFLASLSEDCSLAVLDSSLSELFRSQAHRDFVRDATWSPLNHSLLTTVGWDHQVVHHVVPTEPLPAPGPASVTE
The test can be described thus: Direct binding fluorescence polarization (FP) assay of FITC-labeled peptides.

[1] abbreviates: supplementary CSV, read-out: PRMT5-MEP50 Kd.
[2] abbreviates: FITC-labeled peptide 1 nM, PRMT5-MEP50 titrated, read-out: KD.

Description: The assay was performed in a buffer of 50 mM 4-(2-hydroxyethyl)-1-piperazineethanesulfonic acid (HEPES), 250 mM NaCl, 1 mM tris(2-carboxyethyl)phosphine (TCEP), and 0.01% (v/v) Tween 20, pH 8.0, in black, 384-well plates with a total volume of 10 μL per well. […] The plates were incubated at room temperature for 1 to 2 h and analyzed on a plate reader using 485 nm excitation and 535 nm emission wavelength. The assay was performed in triplicate.

The Kd is the concentration at which binding is half-saturated. Consider `CC(C)[C@H](NC(=O)[C@H](CCCNC(=N)N)NC(=O)[C@H](CO)NC(=O)COCCOCCNC(=S)Nc1ccc2c(c1)C(=O)OC21c2ccc(O)cc2Oc2cc(O)ccc21)C(=O)N[C@H](C(=O)N1CCC[C@H]1C(=O)N[C@@H]1CCNC(=O)C[C@H](C(=O)N[C@@H](CC(=O)O)C(=O)N[C@@H](C)C(=O)N[C@@H](CC(=O)O)C(N)=O)NC(=O)[C@H](Cc2ccccc2)NC(=O)[C@H](CCC(N)=O)NC1=O)C(C)C` [Compound 11], for which the dissociation constant (Kd) under setting [1] is over 2 µM.

`CC(=O)N[C@H](C(=O)N1CCC[C@H]1C(=O)NCC(=O)N[C@@H](CCC(N)=O)C(=O)N[C@@H](Cc1ccccc1)C(=O)N[C@@H](CC(=O)O)C(=O)N[C@@H](CC(=O)O)C(=O)N[C@@H](C)C(=O)N[C@@H](CC(=O)O)C(=O)N[C@@H](CCCCNC(=S)Nc1ccc2c(c1)C(=O)OC21c2ccc(O)cc2Oc2cc(O)ccc21)C(N)=O)C(C)C` [Compound 29] (Ac-VPGQFDDADK(FITC)-NH2): under setting [2], the Kd is 0.67 ± 0.187 µM.

Consider `CC(=O)N[C@H](C(=O)N1CCC[C@H]1C(=O)NCC(=O)N[C@@H](CCC(N)=O)C(=O)N[C@@H](Cc1ccc(N=C(N)N)cc1)C(=O)N[C@@H](CC(=O)O)C(=O)N[C@@H](CC(=O)O)C(=O)N[C@@H](C)C(=O)N[C@@H](CC(=O)O)C(=O)N[C@@H](CCCCNC(=S)Nc1ccc2c(c1)C(=O)OC21c2ccc(O)cc2Oc2cc(O)ccc21)C(N)=O)C(C)C` [Compound S20] (Ac-VPGQ[Phe(4-guanidino)]DDADK(FITC)-NH2), for which the dissociation constant (Kd) under setting [1] is over 1 µM.

`CC(=O)N[C@H](C(=O)N1CCC[C@H]1C(=O)NCC(=O)N[C@@H](CCC(N)=O)C(=O)N[C@@H](Cc1ccccc1-c1ccccc1)C(=O)N[C@@H](CC(=O)O)C(=O)N[C@@H](CC(=O)O)C(=O)N[C@@H](C)C(=O)N[C@@H](CC(=O)O)C(=O)N[C@@H](CCCCNC(=S)Nc1ccc2c(c1)C(=O)OC21c2ccc(O)cc2Oc2cc(O)ccc21)C(N)=O)C(C)C` [Compound S22] (Ac-VPGQ[Phe(2-Ph)]DDADK(FITC)-NH2): the dissociation constant Kd under setting [1] was over 1 µM.

For the molecule `CC(=O)N1CCC[C@H]1C(=O)N[C@H](C(=O)NC1CCCCC[C@@H](C(=O)N[C@@H](Cc2ccc([N+](=O)[O-])cc2)C(=O)N[C@@H](CC(C(=O)O)C(=O)O)C(=O)N[C@@H](CCC(N)=O)C(=O)N[C@@H](CCCCNC(=S)Nc2ccc3c(c2)C(=O)OC32c3ccc(O)cc3Oc3cc(O)ccc32)C(N)=O)NC(=O)[C@H](CC(=O)O)NC(=O)[C@H](C)NC1=O)C(C)C` (stereo in doubt) [Compound 52], the Kd under setting [1] was over 2 µM.

With `CC(C)[C@H](NC(=O)[C@H](CCCNC(=N)N)NC(=O)[C@H](CO)NC(=O)COCCOCCNC(=S)Nc1ccc2c(c1)C(=O)OC21c2ccc(O)cc2Oc2cc(O)ccc21)C(=O)N[C@H](C(=O)N1CCC[C@H]1C(=O)NC1CCNC(=O)C[C@@H](C(=O)N[C@@H](CC(=O)O)C(=O)N[C@@H](C)C(=O)N[C@@H](CC(=O)O)C(N)=O)NC(=O)[C@H](Cc2ccccc2)NC(=O)[C@H](CCC(N)=O)NC1=O)C(C)C` (stereo in doubt) [Compound 7], the equilibrium dissociation constant (Kd) under setting [1] is over 2 µM.

Regarding `CC(=O)N[C@H](C(=O)N1CCC[C@H]1C(=O)N[C@@H]1CC=CCC[C@@H](C(=O)N[C@@H](CC(=O)O)C(=O)N[C@@H](C)C(=O)N[C@@H](CC(=O)O)C(=O)N[C@@H](CCCCNC(=S)Nc2ccc3c(c2)C(=O)OC32c3ccc(O)cc3Oc3cc(O)ccc32)C(N)=O)NC(=O)[C@H](Cc2ccccc2)NC(=O)[C@H](CCC(N)=O)NC1=O)C(C)C` (single isomer, unassigned) [18 (isomer 1)], the Kd under setting [1] came to 0.352 ± 0.049 µM.

For the molecule `CC(=O)N[C@H](C(=O)N1CCC[C@H]1C(=O)NCC(=O)N[C@@H](CCC(N)=O)C(=O)N[C@@H](Cc1ccccc1)C(=O)N[C@@H](CC(=O)O)C(=O)N[C@@H](CC(C(=O)O)C(=O)O)C(=O)N[C@@H](C)C(=O)N[C@@H](CC(=O)O)C(=O)N[C@@H](CCCCNC(=S)Nc1ccc2c(c1)C(=O)OC21c2ccc(O)cc2Oc2cc(O)ccc21)C(N)=O)C(C)C` [Compound S26] (Ac-VPGQFD[Gla]ADK(FITC)-NH2), under setting [1], the dissociation constant Kd is over 1 µM.

For the molecule `CC(=O)N[C@H](C(=O)N1CCC[C@H]1C(=O)NCC(=O)N[C@@H](CC(N)=O)C(=O)N[C@@H](Cc1ccccc1)C(=O)N[C@@H](CC(=O)O)C(=O)N[C@@H](CC(=O)O)C(=O)N[C@@H](C)C(=O)N[C@@H](CC(=O)O)C(=O)N[C@@H](CCCCNC(=S)Nc1ccc2c(c1)C(=O)OC21c2ccc(O)cc2Oc2cc(O)ccc21)C(N)=O)C(C)C` [Compound S8] (Ac-VPGNFDDADK(FITC)-NH2), the dissociation constant Kd under setting [1] was over 1 µM.

As to `CC(=O)N[C@H](C(=O)N1CCC[C@H]1C(=O)NC1CCC=CCC[C@@H](C(=O)N[C@@H](CC(=O)O)C(=O)N[C@@H](C)C(=O)N[C@@H](CC(=O)O)C(=O)N[C@@H](CCCCNC(=S)Nc2ccc3c(c2)C(=O)OC32c3ccc(O)cc3Oc3cc(O)ccc32)C(N)=O)NC(=O)[C@H](Cc2ccccc2)NC(=O)[C@H](CCC(N)=O)NC1=O)C(C)C` (stereo in doubt) [Compound 20], the equilibrium dissociation constant (Kd) under setting [1] was over 2 µM.

`CC(=O)N[C@H](C(=O)N1CCC[C@H]1C(=O)NCC(=O)N[C@@H](CCC(N)=O)C(=O)N[C@@H](Cc1ccc(C(=O)c2ccccc2)cc1)C(=O)N[C@@H](CC(=O)O)C(=O)N[C@@H](CC(=O)O)C(=O)N[C@@H](C)C(=O)N[C@@H](CC(=O)O)C(=O)N[C@@H](CCCCNC(=S)Nc1ccc2c(c1)C(=O)OC21c2ccc(O)cc2Oc2cc(O)ccc21)C(N)=O)C(C)C` [Compound S23] (Ac-VPGQ[Bpa]DDADK(FITC)-NH2) yielded a Kd (PRMT5-MEP50 Kd (µM), supplementary CSV) of 0.752 ± 0.044 µM.

As for `CC(=O)N[C@H](C(=O)N1CCC[C@H]1C(=O)NCC(=O)N[C@@H](CCC(N)=O)C(=O)N[C@@H](Cc1c(F)c(F)c(F)c(F)c1F)C(=O)N[C@@H](CC(=O)O)C(=O)N[C@@H](CC(=O)O)C(=O)N[C@@H](C)C(=O)N[C@@H](CC(=O)O)C(=O)N[C@@H](CCCCNC(=S)Nc1ccc2c(c1)C(=O)OC21c2ccc(O)cc2Oc2cc(O)ccc21)C(N)=O)C(C)C` [Compound S13] (Ac-VPGQ[Phe(F5)]DDADK(FITC)-NH2), under setting [1], the Kd was over 1 µM.

`CC(=O)N[C@H](C(=O)N1CCC[C@H]1C(=O)NCC(=O)N[C@@H](CCC(N)=O)C(=O)N[C@@H](Cc1ccccc1I)C(=O)N[C@@H](CC(=O)O)C(=O)N[C@@H](CC(=O)O)C(=O)N[C@@H](C)C(=O)N[C@@H](CC(=O)O)C(=O)N[C@@H](CCCCNC(=S)Nc1ccc2c(c1)C(=O)OC21c2ccc(O)cc2Oc2cc(O)ccc21)C(N)=O)C(C)C` [Compound S14] (Ac-VPGQ[Phe(2-I)]DDADK(FITC)-NH2): the Kd under setting [1] was over 1 µM.

With `CC(C)[C@H](NC(=O)[C@H](CCCNC(=N)N)NC(=O)[C@H](CO)NC(=O)COCCOCCNC(=S)Nc1ccc2c(c1)C(=O)OC21c2ccc(O)cc2Oc2cc(O)ccc21)C(=O)N[C@H](C(=O)N1CCC[C@H]1C(=O)NC1CNC(=O)CC[C@@H](C(=O)N[C@@H](CC(=O)O)C(=O)N[C@@H](C)C(=O)N[C@@H](CC(=O)O)C(N)=O)NC(=O)[C@H](Cc2ccccc2)NC(=O)[C@H](CCC(N)=O)NC1=O)C(C)C` (stereo in doubt) [Compound 6], under setting [1], the Kd is over 2 µM.

`CCCC[C@H](NC(=O)[C@H](CC(=O)O)NC(=O)[C@H](CC(=O)O)NC(=O)[C@H](Cc1ccccc1)NC(=O)[C@H](CCC(N)=O)NC(=O)CNC(=O)[C@@H]1CCCN1C(=O)[C@@H](NC(C)=O)C(C)C)C(=O)N[C@@H](CC(=O)O)C(=O)N[C@@H](CCCCNC(=S)Nc1ccc2c(c1)C(=O)OC21c2ccc(O)cc2Oc2cc(O)ccc21)C(N)=O` [Compound S29] (Ac-VPGQFDD[Nle]DK(FITC)-NH2): the Kd under setting [1] was over 1 µM.

As for `CC(C)[C@H](NC(=O)[C@H](CCCNC(=N)N)NC(=O)[C@H](CO)NC(=O)COCCOCCNC(=S)Nc1ccc2c(c1)C(=O)OC21c2ccc(O)cc2Oc2cc(O)ccc21)C(=O)N[C@H](C(=O)N1CCC[C@H]1C(=O)NC1CC=CC[C@@H](C(=O)N[C@@H](CC(=O)O)C(=O)N[C@@H](C)C(=O)N[C@@H](CC(=O)O)C(N)=O)NC(=O)[C@H](Cc2ccccc2)NC(=O)[C@H](CCC(N)=O)NC1=O)C(C)C` (stereo in doubt) [Compound 13], the equilibrium dissociation constant (Kd) under setting [2] is 0.719 ± 0.041 µM.

For `CC(C)[C@H](NC(=O)[C@H](CCCNC(=N)N)NC(=O)[C@H](CO)NC(=O)COCCOCCNC(=S)Nc1ccc2c(c1)C(=O)OC21c2ccc(O)cc2Oc2cc(O)ccc21)C(=O)N[C@H](C(=O)N1CCC[C@H]1C(=O)NC1CNC(=O)C[C@@H](C(=O)N[C@@H](CC(=O)O)C(=O)N[C@@H](C)C(=O)N[C@@H](CC(=O)O)C(N)=O)NC(=O)[C@H](Cc2ccccc2)NC(=O)[C@H](CCC(N)=O)NC1=O)C(C)C` (stereo in doubt) [Compound 5], under setting [1], the Kd was over 2 µM.

Turning to `CC(=O)N[C@H](C(=O)N1CCC[C@H]1C(=O)N[C@@H]1CCCCC[C@H](C(=O)N[C@@H](CC(=O)O)C(=O)N[C@@H](C)C(=O)N[C@@H](CC(=O)O)C(=O)N[C@@H](CCCCNC(=S)Nc2ccc3c(c2)C(=O)OC32c3ccc(O)cc3Oc3cc(O)ccc32)C(N)=O)NC(=O)[C@H](Cc2ccccc2)NC(=O)[C@H](CCC(N)=O)NC1=O)C(C)C` [Compound 26], the dissociation constant Kd under setting [1] was over 2 µM.

Consider `CC(C)[C@H](NC(=O)[C@H](CCCNC(=N)N)NC(=O)[C@H](CO)NC(=O)COCCOCCNC(=S)Nc1ccc2c(c1)C(=O)OC21c2ccc(O)cc2Oc2cc(O)ccc21)C(=O)N[C@H](C(=O)N1CCC[C@H]1C(=O)N[C@@H]1CCNC(=O)CC[C@H](C(=O)N[C@@H](CC(=O)O)C(=O)N[C@@H](C)C(=O)N[C@@H](CC(=O)O)C(N)=O)NC(=O)[C@H](Cc2ccccc2)NC(=O)[C@H](CCC(N)=O)NC1=O)C(C)C` [Compound 12], for which, under setting [1], the Kd is over 2 µM.

Take `CC(=O)N[C@@H](Cc1ccccc1)C(=O)N1CCC[C@H]1C(=O)NCC(=O)N[C@@H](CCC(N)=O)C(=O)N[C@@H](Cc1ccccc1)C(=O)N[C@@H](CC(=O)O)C(=O)N[C@@H](CC(=O)O)C(=O)N[C@@H](C)C(=O)N[C@@H](CC(=O)O)C(=O)N[C@@H](CCCCNC(=S)Nc1ccc2c(c1)C(=O)OC21c2ccc(O)cc2Oc2cc(O)ccc21)C(N)=O` [Compound S3] (Ac-FPGQFDDADK(FITC)-NH2): under setting [1], the Kd is over 1 µM.

On to `CC(C)[C@H](NC(=O)[C@H](CCCNC(=N)N)NC(=O)[C@H](CO)NC(=O)COCCOCCNC(=S)Nc1ccc2c(c1)C(=O)OC21c2ccc(O)cc2Oc2cc(O)ccc21)C(=O)N[C@H](C(=O)N1CCC[C@H]1C(=O)NC1CCNC(=O)CC[C@@H](C(=O)N[C@@H](CC(=O)O)C(=O)N[C@@H](C)C(=O)N[C@@H](CC(=O)O)C(N)=O)NC(=O)[C@H](Cc2ccccc2)NC(=O)[C@H](CCC(N)=O)NC1=O)C(C)C` (stereo in doubt) [Compound 8], for which, under setting [1], the Kd was over 2 µM.
